Values quoted from earlier work in patent US20240325474A1 (priority 2023, published 2024).
Converted amounts (≈) assume the structure as drawn.

Legend:
SARS-COV-2 = details: Calu-3 cells
[1] = tested on: Calu-3 lung epithelia cell lines

In the case of C=C1CC[C@@H]2[C@](C)(CO)[C@H](O)CC[C@@]2(C)[C@@H]1C/C=C1/C(=O)OC[C@H]1O [andrographolide], the IC50 (SARS-COV-2) is given as 34 nM and the CC50 [1] is given as 58.03 µg/mL (≈ 166 µM).
